Tests used:
Pseudomonas aeruginosa = Pseudomonas aeruginosa agarose bead lung infection in WT C57BL/6J mice (Example 1); assay type: in vivo
Procedure: Ajulemic acid (AJA) was tested in mice inoculated with Pseudomonas aeruginosa to determine its effect on treatment of infection, including the ability to promote bacterial clearance. Mice (WT, C57BL/6J) were inoculated with Pseudomonas aeruginosa agarose beads in the lungs and then treated twice daily with oral doses of ajulemic acid at 1 mg/kg and 5 mg/kg. Ajulemic acid was then administered by gavage at 1 mg/kg or 5 mg/kg dose BID in 2% methylcellulose for 10 days starting 24 hours after establishing chronic Pseudomonas aeruginosa infection. WT animals in this study were followed daily for clinical score and weights for 10 days. At Day 10, animals were euthanized and evaluated for bacteria load (colony forming units, cfus), total bronchoalveolar lavage (BAL), white blood cell counts (WBCs), and differential cell counts.
The study was conducted with 40 wild type female C57BL/6J mice. Each group of mice was inoculated with 10^5 colony forming units (CFUs) of Pseudomonas aeruginosa (PAM 5715, a CF clinical isolate). One day post infection, mice were given either 2% methylcellulose, 2% methylcellulose+1 mg/kg ajulemic acid, or 2% methylcellulose+5 mg/kg ajulemic acid BID. Animals were followed for 10 days. At day 10, animals were euthanized for BAL CFUs, differentials, total white blood cell count with fluid, and pellet saved for future studies.
Treatment and control groups include the following Pseudomonas aeruginosa infected controls treated with 2% methylcellulose, Pseudomonas aeruginosa infected animals treated with 1 mg/kg BID AJA in 2% methylcellulose, Pseudomonas aeruginosa infected animals treated with 5 mg/kg BID AJA in 2% methylcellulose, and untreated baseline controls.

[1] = Phase 2 study in subjects having cystic fibrosis, acute pulmonary exacerbations and safety (Example 4); assay type: in vivo, human
Procedure: An international, multi-center, double-blinded, randomized, placebo-controlled Phase 2 study was performed in subjects having cystic fibrosis. The primary objective of the study was to test safety and tolerability of ajulemic acid in adults with cystic fibrosis who had forced expiratory volume in 1 second (FEV1) percent predicted at least 40% predicted, without regard to their CFTR mutation, infecting pathogen, or baseline treatment. Events of special interest included acute exacerbations requiring intravenous antibiotic treatment or treatment with new antibiotics.
Eighty-five subjects on stable standard-of-care medications were dosed with ajulemic acid at 21 cystic fibrosis centers in the U.S. and Europe and treated with ajulemic acid daily for a period of 84 days, with a follow-up period of 28 days. During the first part of the study (weeks 1-4) subjects were randomized to the following treatment groups: placebo (n=35), 1 mg/day ajulemic acid (n=26) or 5 mg/day ajulemic acid (n=24). During the second part of the study (weeks 5-13), subjects given ajulemic acid in the first part of the study were re-randomized to ajulemic acid 20 mg once per day (n=31) or ajulemic acid 20 mg twice a day (n=30) with 11 subjects from the placebo group also being randomized to the ajulemic acid arms. The last part of the study was a 28 day follow up period post treatment.

[2] = 1 mg/day, 5 mg/day, or 20 mg/day, respective treatment periods
[3] = across doses, compared to placebo

CCCCCCC(C)(C)c1cc(O)c2c(c1)OC(C)(C)[C@@H]1CC=C(C(=O)O)C[C@@H]21 [ajulemic acid, (6aR,10aR)-1-hydroxy-6,6-dimethyl-3-(2-methyl-2-octanyl)-6a,7,10,10a-tetrahydro-6H-benzo[c]chromene-9-carboxylic acid]
white blood cell response (Pseudomonas aeruginosa; 1 mg/kg and 5 mg/kg BID oral, day 3, relative to controls infected or not infected): elevated | weight profiles (body weight maintenance) (Pseudomonas aeruginosa; 1 mg/kg or 5 mg/kg BID, 10 days): no real adverse effect | bacterial load of Pseudomonas aeruginosa (bacterial CFUs in the lungs) (Pseudomonas aeruginosa; 5 mg/kg BID oral, day 10): effective at decreasing the overall number of bacterial CFUs in the lungs | treatment of infection compared with vehicle (Pseudomonas aeruginosa; WT C57BL/6J mice): more efficient at treating infection than vehicle | tolerability (Pseudomonas aeruginosa; WT C57BL/6J mice, 1 or 5 mg/kg BID oral, 10 days): well tolerated | white blood cells (Pseudomonas aeruginosa; all groups, day 10, compared to controls): normalized | levels of neutrophils (Pseudomonas aeruginosa; all treatment groups relative to the non-treated control): elevated levels of neutrophils | levels of lymphocytes or eosinophils (Pseudomonas aeruginosa; any of the groups): no significant difference | alveolar macrophages (Pseudomonas aeruginosa; treatment groups, by day 10): increase in alveolar macrophages | neutrophils (Pseudomonas aeruginosa; treatment groups, by day 10): decreased neutrophils | Acute pulmonary exacerbations requiring a new antibiotic, Subjects ([1]; 1 mg, N = 22, Weeks 1-4, placebo 6 (25.0)): 3 (13.6) n/N at risk (%) | Acute pulmonary exacerbations requiring intravenous antibiotics, Subjects ([1]; 1 mg, Weeks 1-4, placebo 3 (8.6)): 1 (3.8) n (% at risk) | acute pulmonary exacerbations requiring any new antibiotic [1, 2]: Reductions were also observed | acute pulmonary exacerbations requiring intravenous antibiotics [1, 2]: Reductions were also observed | Acute pulmonary exacerbations requiring a new antibiotic, Subjects ([1]; 5 mg, N = 23, Weeks 1-4, placebo 6 (25.0)): 3 (13.0) n/N at risk (%) | Acute pulmonary exacerbations requiring intravenous antibiotics, Subjects ([1]; 5 mg, Weeks 1-4, placebo 3 (8.6)): 1 (4.2) n (% at risk) | Acute pulmonary exacerbations requiring a new antibiotic, Subjects ([1]; 20 mg BID, N = 22, Post-treatment, placebo 2 (22.2)): 2 (9.1) n/N at risk (%) | Acute pulmonary exacerbations requiring a new antibiotic, Subjects ([1]; 20 mg BID, N = 24, Weeks 5-12, placebo 9 (50.0)): 2 (8.3) n/N at risk (%) | Acute pulmonary exacerbations requiring intravenous antibiotics, Subjects ([1]; 20 mg BID, Weeks 5-12, placebo 3 (16.7)): 1 (3.3) n (% at risk) | reduction in the 48 week rate of acute pulmonary exacerbations requiring any new antibiotic ([1]; 20 mg BID, compared to placebo): 82% | reduction in the 48 week rate of acute pulmonary exacerbations requiring intravenous antibiotics ([1]; 20 mg BID, compared to placebo): 75% | Acute pulmonary exacerbations requiring a new antibiotic, Subjects ([1]; 20 mg, N = 20, Post-treatment, placebo 2 (22.2)): 6 (30.0) n/N at risk (%) | Acute pulmonary exacerbations requiring a new antibiotic, Subjects ([1]; 20 mg, N = 25, Weeks 5-12, placebo 9 (50.0)): 4 (16.0) n/N at risk (%) | Acute pulmonary exacerbations requiring intravenous antibiotics, Subjects ([1]; 20 mg, Weeks 5-12, placebo 3 (16.7)): 3 (6.5) n (% at risk) | subjects withdrawn due to adverse events ([1]; 85 subjects dosed, 2 on placebo): 3 subjects | occurrence of acute pulmonary exacerbations requiring treatment with any new antibiotic [1, 3]: dose-dependent decrease | occurrence of acute pulmonary exacerbations requiring treatment with intravenous antibiotics [1, 3]: dose-dependent decrease | related serious or severe treatment emergent adverse events ([1]; adults with cystic fibrosis, 1-20 mg BID, 84 days): No related serious or severe treatment emergent adverse events
